Data: patent US20150073005A1, “COMPOSITION FOR HAIR GROWTH” (ASAHI GLASS COMPANY, LIMITED, priority 2012, published 2015)

Test system: C3H/HeNSIc mouse
Conditions: in vivo
Text: Hairs on the back of each C3H/HeNSIc mouse (male, 8 weeks old) were carefully dehaired in an area of 2 cm×3 cm to form a medicine application surface. The next day (the day before initiation of the test), mice which were confirmed to have no damage on the application surface of the back, to have a pink color over the entire application surface and to be in the telogen stage of hair growth, were bred in a stainless steel cage (185 W×260 D×175 H (mm)) in three groups each group consisting of 10 mice.
Every day, the application surface was inspected before the application, and the day on which hair growth was observed, was taken as the hair growth day.

CC(C)OC(=O)CCC/C=C\C[C@@H]1[C@@H](/C=C/C(F)(F)COc2ccccc2)[C@H](O)C[C@@H]1O [0.0015% Tafluprost, Tafluprost]
Blackening of the skin at the application surface as visually observed: ^aHair growth without blackening of the skin as visually observed.
